Data as given in ChEMBL document CHEMBL3124795, “Synthesis and antiproliferative evaluation of 13-aryl-13H-benzo[g]benzothiazolo [2,3-b]quinazoline-5,14-diones” (Bioorg Med Chem Lett, 2014).

Experiments:
HEK293 = test: Antiproliferative activity against human HEK293 cells after 48 hrs by MTT assay; assay type: cell-based; conditions: HEK293, 48 h
HeLa = test: Antiproliferative activity against human HeLa cells after 48 hrs by MTT assay; assay type: functional, cell-based
HepG2 = test: Antiproliferative activity against human HepG2 cells after 48 hrs by MTT assay; assay type: functional, cell-based; conditions: HepG2, 48 h

O=C1C2=C(C(=O)c3ccccc31)C(c1ccccc1)N1C(=N2)Sc2ccccc21 (configuration not stated)
IC50 (HEK293): 4.16 µM
IC50 (HeLa): 2.99 µM
IC50 (HepG2): 1.66 µM

O=C1C2=C(C(=O)c3ccccc31)C(c1ccc(F)cc1)N1C(=N2)Sc2ccccc21 (configuration not stated)
IC50 (HEK293): 15.1 µM
IC50 (HeLa): 3.96 µM
IC50 (HepG2): 9.4 µM

Cc1ccc(C2C3=C(N=C4Sc5ccccc5N42)C(=O)c2ccccc2C3=O)cc1 (configuration not stated)
IC50 (HEK293): 5.18 µM
IC50 (HeLa): 3.81 µM
IC50 (HepG2): 1.7 µM

COc1ccc(OC)c(C2C3=C(N=C4Sc5ccccc5N42)C(=O)c2ccccc2C3=O)c1 (configuration not stated)
IC50 (HEK293): > 200 µM
IC50 (HeLa): 125 µM
IC50 (HepG2): 190 µM

COc1cc(C2C3=C(N=C4Sc5ccccc5N42)C(=O)c2ccccc2C3=O)cc(OC)c1OC (configuration not stated)
IC50 (HEK293): 11 µM
IC50 (HeLa): 9.32 µM
IC50 (HepG2): 5.03 µM

O=C1C2=C(C(=O)c3ccccc31)C(c1ccc([N+](=O)[O-])cc1)N1C(=N2)Sc2ccccc21 (configuration not stated)
IC50 (HEK293): 50.3 µM
IC50 (HeLa): 29 µM
IC50 (HepG2): 14.3 µM

O=C1C2=C(C(=O)c3ccccc31)C(c1ccc(Cl)cc1Cl)N1C(=N2)Sc2ccccc21 (configuration not stated)
IC50 (HEK293): 4.9 µM
IC50 (HeLa): 2.68 µM
IC50 (HepG2): 3.56 µM

O=C1C2=C(C(=O)c3ccccc31)C(c1ccc(Cl)cc1)N1C(=N2)Sc2ccccc21 (configuration not stated)
IC50 (HEK293): 25.9 µM
IC50 (HeLa): 15.6 µM
IC50 (HepG2): 23.4 µM

O=C1C2=C(C(=O)c3ccccc31)C(c1ccco1)N1C(=N2)Sc2ccccc21 (configuration not stated)
IC50 (HEK293): 10.1 µM
IC50 (HeLa): 6.62 µM
IC50 (HepG2): 9.07 µM

O=C1C2=C(C(=O)c3ccccc31)C(c1cccs1)N1C(=N2)Sc2ccccc21 (configuration not stated)
IC50 (HEK293): 5.9 µM
IC50 (HeLa): 4.23 µM
IC50 (HepG2): 5.76 µM

COc1cccc2c1C(=O)c1c(O)c3c(c(O)c1C2=O)C[C@@](O)(C(=O)CO)C[C@@H]3O[C@H]1C[C@H](N)[C@H](O)[C@H](C)O1 [DOXORUBICIN]
IC50 (HEK293): 1.06 µM
IC50 (HepG2): 1.15 µM
